Assay results from PubChem BioAssay (NCI).
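Dose response: 5 concentrations. Exposure: 48 h. Format: 96-well plates. Endpoint: linear interpolation; highest concentration if not reached. GI50 marks 50% less growth. At the TGI there is no net growth.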

How the values were obtained:
Test in all cases: NCI-60 cell line screen, 48 h
SN12C renal = tested on: SN12C renal
HCT-116 colon = tested on: HCT-116 colon
OVCAR-3 ovarian = tested on: OVCAR-3 ovarian
NCI-H226 lung = tested on: NCI-H226 lung
SK-MEL-5 melanoma = tested on: SK-MEL-5 melanoma
A549 NSCLC = tested on: A549 NSCLC
SNB-19 CNS = tested on: SNB-19 CNS
OVCAR-5 ovarian = tested on: OVCAR-5 ovarian
NCI/ADR-RES ovarian = tested on: NCI/ADR-RES ovarian
SK-MEL-28 melanoma = tested on: SK-MEL-28 melanoma

Compound	TGI (SN12C renal) [µM]	TGI (HCT-116 colon) [µM]	TGI (OVCAR-3 ovarian) [µM]	TGI (NCI-H226 lung) [µM]	TGI (SK-MEL-5 melanoma) [µM]	TGI (A549 NSCLC) [µM]	TGI (SNB-19 CNS) [µM]	TGI (OVCAR-5 ovarian) [µM]	GI50 (SN12C renal) [µM]	GI50 (HCT-116 colon) [µM]	GI50 (OVCAR-3 ovarian) [µM]	GI50 (NCI-H226 lung) [µM]	GI50 (NCI/ADR-RES ovarian) [µM]	TGI (NCI/ADR-RES ovarian) [µM]	GI50 (SK-MEL-28 melanoma) [µM]	TGI (SK-MEL-28 melanoma) [µM]	GI50 (SK-MEL-5 melanoma) [µM]	GI50 (A549 NSCLC) [µM]	GI50 (SNB-19 CNS) [µM]	GI50 (OVCAR-5 ovarian) [µM]
NC1=NN(c2ccccc2)C(=O)C1C(=O)C(=O)Nc1cccc(C(F)(F)F)c1 (stereo not given)	> 100	> 100	> 100	> 100	> 100	> 100	> 100	> 100	–	–	–	–	–	–	–	–	–	–	–	–
N#Cc1c(N)nc(N2CCOCC2)c(C#N)c1-c1cccc(O)c1	> 100	> 100	> 100	> 100	> 100	> 100	> 100	> 100	69	> 100	61.9	> 100	> 100	> 100	> 100	> 100	> 100	> 100	> 100	> 100
N=c1oc2cc(O)c(O)cc2cc1C(N)=O	> 100	> 100	> 100	> 100	> 100	> 100	> 100	> 100	–	–	–	–	–	–	–	> 100	–	–	–	–
C=C1C(=O)O[C@H]2[C@H]1CC/C(COC(=O)NCCc1c[nH]c3ccccc13)=C\CC[C@@]1(C)O[C@@H]21	3.15	2.39	2.31	3.39	5.95	25.4	20.2	5.75	1.2	1.01	1.04	1.8	2.5	11.8	1.38	3.11	2.44	10.7	6.46	2.3
COc1cc(C(=O)O)ccc1NC(=O)[C@@H]1N[C@@H](CC(C)(C)C)[C@](C#N)(c2ccc(Cl)cc2F)[C@H]1c1cccc(Cl)c1F	> 41.9	–	4.3	1.71	–	8.21	31.2	24.9	4.27	–	1.77	0.0941	6.83	25.2	2.56	7.59	–	0.138	5.6	7.23
Cc1ccc(C2=NN(C)COC2C(F)(F)F)cc1 (stereo not given)	> 100	> 100	> 100	> 100	> 100	> 100	> 100	> 100	–	–	–	–	–	–	–	> 100	–	–	–	–
O=C(/C=C\c1cccc2ccccc12)c1ccc(Br)cc1	> 100	30.3	34.4	> 100	38.7	> 100	61.1	47.4	–	–	–	–	–	–	–	27.7	–	–	–	–
C/C(=N\[N+](C)(C)C)C(c1ccccc1)C1(c2ccccc2)C(c2ccccc2)=C1c1ccccc1 (stereo not given)	> 100	> 100	> 100	93.4	> 100	> 100	> 100	> 100	–	–	–	–	–	–	–	–	–	–	–	–
COc1ccc2c(c1)/C(=C/c1c(-c3ccc(C)cc3)nc3sc(C)cn13)C(=O)N2	31.9	18.7	> 100	95.9	30.5	> 100	> 100	87.3	13.9	4.71	15.5	20.1	–	–	23.4	> 100	11.9	12.5	20.6	16.6
CCOC(=O)C(=O)Nc1ccc([N+](=O)[O-])cc1C#N	> 100	> 100	> 100	> 100	> 100	> 100	> 100	> 100	–	–	–	–	–	–	–	> 100	–	–	–	–
COc1ccc(C(=O)c2ccc(OC)cc2OC)cc1	> 100	34.7	5.95	–	5.32	> 100	> 100	> 100	5.58	3.24	2.2	–	1.59	5.98	4.05	> 100	2.06	5.55	6.12	8.79
Fc1ccc(Nc2ccc3cc(OCCCN4CCOCC4)ccc3n2)cc1F	> 100	> 100	> 100	–	3.49	> 100	7.99	> 100	9.77	4.5	7.03	–	4.45	> 100	1.87	3.93	1.75	5.36	2.78	3.02
C/C=C/C/C=C/CCC(=O)C1OC1C(N)=O (stereo not given)	39.8	28.2	32.8	–	28.3	56	32.1	32.8	–	–	–	–	–	50.1	–	30.6	–	–	–	–
O=C(CCc1ccc(O)c(O)c1)c1ccc(O)c(O)c1O	31.9	> 100	–	36.2	36.3	> 100	> 100	49.4	–	–	–	–	–	> 100	–	> 100	–	–	–	–
O=c1[nH]cnc2c1nnn2[C@@H]1O[C@H](CO)[C@@H](O)[C@H]1O	> 100	> 100	33.8	> 100	> 100	> 100	–	> 100	6.4	3.93	3.43	30.1	2.27	> 100	31.5	> 100	13.1	27.5	–	19.3
Cc1ccc(NC(=O)/C(=N/NC(=O)CC#N)C2C(=O)N(c3ccccc3)N=C2N)cc1C (stereo not given)	> 100	> 100	> 100	> 100	> 100	> 100	> 100	> 100	–	–	–	–	–	–	–	> 100	–	–	–	–
COc1ccc(C2c3cc4c(cc3OC(O)(CO)C2C(=O)O)OCO4)c(OC)c1OC (stereo not given) (tested in a mixture with another compound)	> 100	> 100	> 100	–	> 100	> 100	> 100	–	–	–	–	–	–	–	–	> 100	–	–	–	–
CC1(C)OC(=O)C=C(O)O1.CC1(C)OC(=O)C=C(O)O1.CCO.Oc1ccc2c(c1)CCC2.[Ti]	> 100	> 100	> 100	> 100	> 100	> 100	> 100	> 100	> 100	> 100	> 100	> 100	–	–	> 100	> 100	> 100	> 100	56.3	> 100
CC1CC(C)C(=O)C(C(=O)CC2CC(=O)NC2=O)C1 (stereo not given)	> 100	> 100	> 100	> 100	–	> 100	> 100	> 100	–	–	–	–	–	–	–	> 100	–	–	–	–

Compound	TGI (SN12C renal) [µM]	TGI (HCT-116 colon) [µM]	TGI (OVCAR-3 ovarian) [µM]	TGI (NCI-H226 lung) [µM]	TGI (SK-MEL-5 melanoma) [µM]	TGI (A549 NSCLC) [µM]	TGI (SNB-19 CNS) [µM]	TGI (OVCAR-5 ovarian) [µM]	GI50 (SN12C renal) [µM]	GI50 (HCT-116 colon) [µM]	GI50 (OVCAR-3 ovarian) [µM]	GI50 (NCI-H226 lung) [µM]	GI50 (NCI/ADR-RES ovarian) [µM]	TGI (NCI/ADR-RES ovarian) [µM]	GI50 (SK-MEL-28 melanoma) [µM]	TGI (SK-MEL-28 melanoma) [µM]	GI50 (SK-MEL-5 melanoma) [µM]	GI50 (A549 NSCLC) [µM]	GI50 (SNB-19 CNS) [µM]	GI50 (OVCAR-5 ovarian) [µM]
CC1(C)CC2=NOS3=C2C(=NO3)C1c1ccccn1 (stereo not given)	> 100	> 100	> 100	–	34.8	> 100	> 100	> 100	–	–	–	–	–	> 100	–	> 100	–	–	–	–
COc1ccc(C(=O)O)c2c(=O)c3ccccc3[nH]c12	> 100	> 100	–	> 100	–	> 100	> 100	> 100	–	–	–	–	–	–	–	> 100	–	–	–	–
N#C/C(=C\c1ccc(Br)cc1)n1nnc2cc(F)c(F)cc21	–	3.44	3.76	4.99	3.17	5.62	3.07	3.57	–	1.56	1.89	2.17	2.3	> 100	1.84	3.63	1.76	2.14	1.64	1.85
O=C(Nc1ccc(N=Nc2ccccc2)cc1)Sc1ccccc1C(=O)O	> 100	> 100	> 100	> 100	–	> 100	> 100	> 100	–	–	–	–	–	–	–	> 100	–	–	–	–
CCC12CC[C@H](C#N)N3CCc4c(n(c5ccccc45)C(=O)C1)C32 (stereo not given in full)	37.8	26.8	29	–	27.2	61.3	–	38.5	–	–	–	–	–	–	–	40.4	–	–	–	–
COC1=CC(C)C2C[C@H]3O[C@H](O)C[C@H]4C(C)C(=O)C(O)C([C@@]2(C)C1=O)[C@@]34C (stereo not given in full)	> 100	> 100	> 100	> 100	> 100	> 100	–	–	–	–	–	–	–	–	–	> 100	–	–	–	–
O=C1CC(c2ccccc2)NCN1 (stereo not given)	> 100	> 100	> 100	> 100	> 100	> 100	> 100	> 100	–	–	–	–	–	–	–	> 100	–	–	–	–
NC(=S)N/N=C1\C(=O)N(c2cccc([N+](=O)[O-])c2)C(=O)C1C(=O)Nc1cccc([N+](=O)[O-])c1 (stereo not given)	> 100	> 100	> 100	> 100	> 100	> 100	> 100	> 100	–	–	–	–	–	–	–	> 100	–	–	–	–
N#CC(c1ccc(Cl)cc1)c1cccc(Cl)n1 (stereo not given)	> 100	–	> 100	> 100	–	> 100	> 100	> 100	–	–	–	–	–	–	–	> 100	–	–	–	–
COc1cc2c(cc1OCCCCCN1CCN(c3cc(=O)oc4c(C)c(OC)ccc34)CC1)N=C[C@@H]1CCCN1C2=O	0.0699	–	0.0324	0.0368	–	15.4	8.82	0.851	< 0.01	–	< 0.01	< 0.01	1.55	8.25	< 0.0235	0.163	–	0.0211	< 0.0143	< 0.0123
Cc1cccc(Oc2ccc(Nc3ncnc4ccc(NC(=O)CN5CCN(C)CC5)cc34)cc2Cl)c1	3.44	–	2.99	–	3.03	–	4.79	3.2	1.72	–	1.42	–	1.73	4.24	1.74	3.2	1.64	–	1.95	1.66
c1cc2[se][se]c3c4cccc5[se][se]c(c(c1)c23)c54	> 100	> 100	> 100	> 100	> 100	> 100	> 100	> 100	–	–	–	–	–	–	–	> 100	–	–	–	–
C/C=C/CP(=O)(c1ccccc1)c1ccccc1	> 100	> 100	> 100	> 100	> 100	> 100	> 100	> 100	–	–	–	–	–	–	–	> 100	–	–	–	–
Cc1nc(Nc2ccccc2)sc1C(=O)NNC(N)=O	> 100	> 100	> 100	> 100	> 100	> 100	> 100	> 100	–	–	–	–	–	–	–	> 100	–	–	–	–
O[C@H]1[C@H]2[C@H](O)CCCN2C[C@H]1O	> 100	> 100	> 100	> 100	> 100	> 100	> 100	> 100	–	–	–	–	–	–	–	> 100	–	–	–	–
CC(=O)[CH-]C(C)=O.CC(=O)[CH-]C(C)=O.CC(=O)[CH-]C(C)=O.[Cl-].[Hf+4]	> 100	> 100	> 100	> 100	–	> 100	> 100	> 100	> 100	> 100	> 100	> 100	–	–	> 100	> 100	–	> 100	> 100	> 100
CC(=O)Oc1cc2c(=O)oc3c(OC(C)=O)c(OC(C)=O)c(OC(C)=O)c4c(=O)oc(c1OC(C)=O)c2c34	61.1	52.6	> 100	99	> 100	> 100	> 100	> 100	–	–	–	–	–	–	–	> 100	–	–	–	–
CO/C=C/c1cc2c(cc1C(OC)OC)OCO2	> 100	> 100	80.9	> 100	42.8	> 100	> 100	> 100	–	–	–	–	–	–	–	> 100	–	–	–	–
O=C1C(Br)=C(c2ccccc2)C(c2ccccc2)=C1c1ccccc1	3.85	3.6	6.37	21.8	9.35	28.1	24.2	25.5	–	–	–	–	–	–	–	6.75	–	–	–	–
